# Assay results published in patent publication US4780560A, “Nitrate derivatives and vasodilators containing the same” (priority 1986, dated 1988).
# Key:
# Vertebral artery = assay: Vasodilating activity: increase in vertebral blood flow in anesthetized dogs; type: in vivo, Hybrid adult dogs; settings: i.v., n = 3 anesthetized dogs, vs. prior to administration
# Method: (§1) A suspension of the compounds produced in the above examples in 0.5% HCO 60 solution was administered through the lateroradial dermal vein. […] As a control drug was employed Cinnepazied (1-[(1-pyrrolidinylcarbonyl)methyl]-4-(3,4,5-trimethyoxycinnamoyl)piperazine).
# Coronary artery = assay: Vasodilating activity: increase in coronary blood flow in anesthetized dogs; type: in vivo, Hybrid adult dogs; settings: i.v., n = 3 anesthetized dogs, vs. prior to administration
# Method: as §1
SMILES,"Increase in blood flow (Δ% ± SE), Vertebral artery (Vertebral artery; 0.3 mg/kg)","Increase in blood flow (Δ% ± SE), Vertebral artery (Vertebral artery; 1.0 mg/kg)","Increase in blood flow (Δ% ± SE), Coronary artery (Coronary artery; 0.3 mg/kg)","Increase in blood flow (Δ% ± SE), Coronary artery (Coronary artery; 1.0 mg/kg)"
"COc1cc(C=CC(=O)N2CCN(CC(=O)N3CCCC3)CC2)cc(OC)c1OC [Cinnepazid, 1-[(1-pyrrolidinylcarbonyl)methyl]-4-(3,4,5-trimethyoxycinnamoyl)piperazine, reference compound]",1.5 ± 0.4 Δ%,5.6 ± 0.2 Δ%,2.1 ± 0.8 Δ%,10.0 ± 0.5 Δ%
"COc1cc(/C=C/C=C/C(=O)NCCO[N+](=O)[O-])cc(OC)c1OC [Example 1, N-(β-hydroxyethyl)-5-(3,4,5-trimethoxyphenyl)-2,4-pentadienoic acid amide nitrate]",50.0 ± 2.4 Δ%,83.3 ± 7.5 Δ%,3.6 ± 0.2 Δ%,28.6 ± 1.9 Δ%
"COc1cc(/C=C/C(=O)NCCO[N+](=O)[O-])cc(OC)c1OC [Example 2, N-(β-hydroxyethyl)-3,4,5-trimethoxycinnamic acid amide nitrate]",35.0 ± 1.7 Δ%,58.3 ± 5.3 Δ%,3.8 ± 0.5 Δ%,22.9 ± 1.5 Δ%
